Source: patent publication US20250019369A1, “N-(4-aminocyclohexyl)pyrimidine-4-carboxamide derivatives as CD38 inhibitors” (Cerevance, Inc., priority 2021, published 2025)
Read-outs that look alike come from different tables or passages of the source.

Assay: PK brain permeability in C57BL/6 mice after single oral gavage
Assay type: in vivo
Details: 2 hours post dose; for concentration at 2 h / Kpu,u (unbound brain/plasma partition coefficient) at 2 h: male, C57BL/6, mouse; for concentration at 2 h: po, 10 mg/kg; for Kpu,u (unbound brain/plasma partition coefficient) at 2 h / brain permeability (in words): oral 10 mg/kg; for Kpu,u (unbound brain/plasma partition coefficient) at 2 h: read-out: Kpu,u (unbound partitioning coefficient, Cb,u/Cp,u); for brain permeability (in words): comment on Table 3
Method: The distribution of compounds into the brain in vivo was determined in C57BL/6 mice following single oral (po) gavage administration.
Test compounds were formulated at 1 mg/mL in 0.5% HPMC E4 M, 0.2% Tween 80 in water to achieve solutions or homogenous suspensions suitable for po administration.
Formulations were administered to 3 male C57BL/6 mice at a volume of 10 mL/kg resulting in a dose level of 10 mg/kg. Blood samples were collected at 1 and 2 hours post dose into tubes containing K2EDTA as anticoagulant, processed to plasma and stored at −60° C. or lower until LC-MS/MS analysis. Brains were harvested 2 hours post dose, rinsed with saline, dried, weighed and homogenised under ice cold conditions. Brain homogenates were stored at −60° C. or lower until LC-MS/MS analysis.
Dose formulation concentrations were verified using a LC-UV or LC-MS/MS method. Test compound concentrations in plasma and brain homogenate were quantitatively determined using LC-MS/MS methods developed in individual matrices against calibration curves with QC samples included and acceptance criteria as per CRO SOPs. Concentrations in brain homogenate were corrected for the dilution factor used to prepare the homogenate to give concentrations in whole brain tissue.
Plasma and brain concentration versus time data were reported and plotted in excel. The brain to plasma ratio at 2 hours post dose was calculated for each animal using the following equation:
Brain:plasma=brain concentration (ng/g) at 2 h/plasma concentration (ng/mL) at 2 h
As only unbound test compound is available to exert an effect on the target, unbound plasma (Cp,u) and unbound brain (Cb,u) concentrations were calculated by correcting the total concentrations for the unbound fraction in plasma (fu,p) or brain (fu,b) determined from in vitro plasma protein or brain tissue binding assays using the following equations: […]
The unbound partitioning coefficient (Kpu,u) was then calculated based on the ratio of Cb,u to Cp,u using the following equation: […]
In these studies, mice were orally administrated a 10 mg/kg dose and sacrificed 2 hours post dose and tissue samples (brain homogenate and plasma) were analyzed subsequently as described above.

[1] = brain, read-out: total brain conc.
[2] = brain, total corrected for unbound fraction in brain, read-out: free brain conc.
[3] = plasma, read-out: total plasma conc.
[4] = plasma, total corrected for unbound fraction in plasma, read-out: free plasma conc.

**Q.** For `Cc1cc(C(=O)N[C@H]2CC[C@H](N3CCC(F)(F)C3)CC2)nc(-n2ccnc2)n1` [Example 10, N-((1r,4r)-4-(3,3-difluoropyrrolidin-1-yl)cyclohexyl)-2-(1H-imidazol-1-yl)-6-methyl-pyrimidine-4-carboxamide], which concentration at 2 h [1] is on record?
**A.** Its concentration at 2 h is 5200 nM.

**Q.** And the concentration at 2 h [2]?
**A.** The concentration at 2 h was 507 nM.

**Q.** And the Kpu,u (unbound brain/plasma partition coefficient) at 2 h?
**A.** Its Kpu,u (unbound brain/plasma partition coefficient) at 2 h is 0.32.

**Q.** What about the concentration at 2 h [3] of the same compound?
**A.** Its concentration at 2 h is 15100 nM.

**Q.** What about the concentration at 2 h [4] of the same compound?
**A.** Its concentration at 2 h is 1610 nM.

**Q.** What about the “brain permeability (in words)” value of the same compound?
**A.** Its value is “excellent brain permeability”.

**Q.** Which results are given for `Cc1cc(C(=O)N[C@H]2CC[C@H](NCC(F)(F)F)CC2)nc(-n2ccnc2)n1` [Example 1, 2-(1H-imidazol-1-yl)-6-methyl-N-((1r,4r)-4-((2,2,2-trifluoroethyl)amino)cyclohexyl)pyrimidine-4-carboxamide]?
**A.** concentration at 2 h [1]: 5510 nM; concentration at 2 h [2]: 3800 nM; Kpu,u (unbound brain/plasma partition coefficient) at 2 h: 1.33; concentration at 2 h [3]: 21900 nM; concentration at 2 h [4]: 2850 nM

**Q.** Which results are given for `Cc1cc(C(=O)N[C@H]2CC[C@H](NC(C)(C)C(F)(F)F)CC2)nc(-n2ccnc2)n1` [Example 21, 2-(1H-imidazol-1-yl)-6-methyl-N-((1r,4r)-4-((1,1,1-trifluoro-2-methylpropan-2-yl)amino)cyclohexyl)pyrimidine-4-carboxamide]?
**A.** concentration at 2 h [1]: 5470 nM; concentration at 2 h [2]: 197 nM; Kpu,u (unbound brain/plasma partition coefficient) at 2 h: 0.4; concentration at 2 h [3]: 11900 nM; concentration at 2 h [4]: 494 nM; brain permeability (in words): excellent brain permeability

**Q.** Which results are given for `O=C(N[C@H]1CC[C@H](NCC(F)F)CC1)c1cc(C2CC2)nc(-n2ccnc2)n1` [Example 3, 6-cyclopropyl-N-((1r,4r)-4-((2,2-difluoroethyl)amino)cyclohexyl)-2-(1H-imidazol-1-yl)pyrimidine-4-carboxamide]?
**A.** concentration at 2 h [1]: 1660 nM; concentration at 2 h [2]: 224 nM; Kpu,u (unbound brain/plasma partition coefficient) at 2 h: 0.48; concentration at 2 h [3]: 6390 nM; concentration at 2 h [4]: 469 nM

**Q.** Which concentration at 2 h [1] does the source give for `Cc1cc(C(=O)N[C@H]2CC[C@H](NCC(F)F)CC2)nc(-n2ccnc2)n1` [Example 2, N-((1r,4r)-4-((2,2-difluoroethyl)amino)cyclohexyl)-2-(1H-imidazol-1-yl)-6-methyl-pyrimidine-4-carboxamide] here?
**A.** The concentration at 2 h was 2190 nM.

**Q.** And the concentration at 2 h [2]?
**A.** The concentration at 2 h was 1390 nM.

**Q.** What about the Kpu,u (unbound brain/plasma partition coefficient) at 2 h of the same compound?
**A.** Its Kpu,u (unbound brain/plasma partition coefficient) at 2 h is 0.65.

**Q.** And the concentration at 2 h [3]?
**A.** The concentration at 2 h was 9370 nM.

**Q.** What about the concentration at 2 h [4] of the same compound?
**A.** Its concentration at 2 h is 2130 nM.
